Results from BigSolDB 2.1.

O=[N+]([O-])c1cn[nH]c1
solubility (mole fraction)
Details	288.15 K	293.15 K	298.15 K	303.15 K	308.15 K	313.15 K	318.15 K	323.15 K	328.15 K
in THF	0.00413	0.00496	0.00592	0.00722	0.0089	0.011	0.0134	0.017	0.022
in acetone	0.0381	0.0405	0.0423	0.045	0.047	0.0495	0.0525	0.0553	0.0582
in acetonitrile	0.0391	0.0457	0.0529	0.0647	0.0776	0.0906	0.108	0.124	0.135
in ethanol	0.101	0.113	0.128	0.147	0.168	0.197	0.232	0.27	0.31
in ethyl acetate	0.00483	0.00609	0.00759	0.00946	0.0118	0.0144	0.0176	0.0214	0.0261
in isobutanol	0.0549	0.0648	0.0762	0.0908	0.107	0.132	0.161	0.195	0.247
in isopentanol	0.0629	0.0732	0.0854	0.106	0.12	0.143	0.173	0.213	0.262
in isopropanol	0.0481	0.0568	0.0675	0.0827	0.0988	0.121	0.147	0.186	0.238
in methanol	0.109	0.126	0.142	0.163	0.188	0.219	0.258	0.312	0.366
in methyl acetate	0.00727	0.00817	0.00942	0.0119	0.0139	0.0169	0.0189	0.024	0.0272
in n-butanol	0.079	0.0902	0.104	0.12	0.14	0.166	0.199	0.241	0.283
in n-pentanol	0.0714	0.0823	0.095	0.112	0.132	0.156	0.189	0.232	0.276
in n-propanol	0.0872	0.101	0.115	0.133	0.154	0.181	0.216	0.255	0.313
in water	0.00217	0.00286	0.0036	0.00471	0.00618	0.00763	0.00961	0.012	0.0151
